From patent publication US9498467B2, “Treatment of chronic neutrophilic leukemia (CNL) and atypical chronic myeloid leukemia (aCML) by inhibitors of JAK1” (Incyte Corporation, priority 2014, dated 2016)

Key:
[1] = biological target: T1, human JAK1 (a.a. 837-1142) (Homo sapiens, UniProt P23458); assay: In vitro JAK kinase assay (HTRF), JAK1; format: biochemical; details: 1 mM ATP
T1 construct: human JAK1 (a.a. 837-1142); made in house; host or cells: insect cells (baculovirus)

[2] = biological target: T2, human JAK2 (a.a. 828-1132) (Homo sapiens, UniProt O60674); assay: In vitro JAK kinase assay (HTRF), JAK2; format: biochemical; details: ratio of IC50s at 1 mM ATP
T2 construct: JAK2 (a.a. 828-1132); made in house; host or cells: insect cells (baculovirus)
T2 sequence (O60674 828-1132): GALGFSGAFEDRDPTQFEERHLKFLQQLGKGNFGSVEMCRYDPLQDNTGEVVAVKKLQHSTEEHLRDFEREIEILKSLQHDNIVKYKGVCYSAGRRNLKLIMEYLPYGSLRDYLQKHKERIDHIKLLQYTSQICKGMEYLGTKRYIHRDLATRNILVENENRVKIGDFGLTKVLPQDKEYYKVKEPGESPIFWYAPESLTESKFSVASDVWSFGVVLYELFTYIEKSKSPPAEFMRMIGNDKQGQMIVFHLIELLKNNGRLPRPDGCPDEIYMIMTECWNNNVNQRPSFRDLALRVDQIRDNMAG

T1 sequence (P23458 849-1154): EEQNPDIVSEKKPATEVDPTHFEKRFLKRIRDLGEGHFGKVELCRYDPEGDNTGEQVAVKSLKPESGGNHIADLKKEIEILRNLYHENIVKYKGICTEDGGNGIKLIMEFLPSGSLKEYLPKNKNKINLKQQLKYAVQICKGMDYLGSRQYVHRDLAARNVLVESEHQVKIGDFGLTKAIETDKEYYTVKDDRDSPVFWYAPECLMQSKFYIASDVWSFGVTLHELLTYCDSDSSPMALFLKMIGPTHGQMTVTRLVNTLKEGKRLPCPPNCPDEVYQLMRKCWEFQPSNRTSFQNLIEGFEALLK

Structure (SMILES) | IC50 [1] [nM] | JAK2/JAK1 [2]
N#CCC1(n2cc(-c3ncnc4[nH]ccc34)cn2)CN(C2CCN(C(=O)Nc3ccc(F)cc3C(F)(F)F)CC2)C1 [Compound 8, 4-{3-(Cyanomethyl)-3-[4-(7H-pyrrolo[2,3-d]pyrimidin-4-yl)-1H-pyrazol-1-yl]azetidin-1-yl}-N-[4-fluoro-2-(trifluoromethyl)phenyl] piperidine-1-carboxamide] | < 10 | >10
N#CC[C@]1(n2cc(-c3ncnc4[nH]ccc34)cn2)C[C@H](N2CCC(Oc3cc(CN4CC(O)C4)cc(C(F)(F)F)n3)CC2)C1 [Compound 11, {trans-3-(4-{[4-[(3-hydroxyazetidin-1-yl)methyl]-6-(trifluoromethyl)pyridin-2-yl]oxy}piperidin-1-yl)-1-[4-(7H-pyrrolo[2,3-d]pyrimidin-4-yl)-1H-pyrazol-1-yl]cyclobutyl} acetonitrile] | < 10 | >10
CC(C)(O)c1cc(O[C@H]2CC[C@@H](N3CC(CC#N)(n4cc(-c5ncnc6[nH]ccc56)cn4)C3)CC2)nc(C(F)(F)F)c1 [Compound 20, {1-(cis-4-{[4-(1-hydroxy-1-methylethyl)-6-(trifluoromethyl)pyridin-2-yl]oxy}cyclohexyl)-3-[4-(7H-pyrrolo[2,3-d]pyrimidin-4-yl)-1H-pyrazol-1-yl]azetidin-3-yl}acetonitrile] | < 10 | >10
N#CCC(C1CCN(c2cccc(Cl)n2)C1)n1cc(-c2ncnc3[nH]ccc23)cn1 (single isomer, unassigned) [Compound 3, 3-[1-(6-chloropyridin-2-yl)pyrrolidin-3-yl]-3-[4-(7H-pyrrolo[2,3-d]pyrimidin-4-yl)-1H-pyrazol-1-yl]propanenitrile] | < 10 | >10
N#CC[C@]1(n2cc(-c3ncnc4[nH]ccc34)cn2)C[C@H](N2CCC(Oc3cc(CN4CCC[C@@H]4CO)cc(C(F)(F)F)n3)CC2)C1 [Compound 13, {trans-3-(4-{[4-{[(2R)-2-(hydroxymethyl)pyrrolidin-1-yl]methyl}-6-(trifluoromethyl)pyridin-2-yl]oxy}piperidin-1-yl)-1-[4-(7H-pyrrolo[2,3-d]pyrimidin-4-yl)-1H-pyrazol-1-yl]cyclobutyl} acetonitrile] | < 10 | >10
N#CCC1(n2cc(-c3ncnc4[nH]ccc34)cn2)CN([C@H]2CC[C@@H](Oc3cc(CCO)nc(C(F)(F)F)n3)CC2)C1 [Compound 18, {1-(cis-4-{[6-(2-hydroxyethyl)-2-(trifluoromethyl)pyrimidin-4-yl]oxy}cyclohexyl)-3-[4-(7H-pyrrolo[2,3-d]pyrimidin-4-yl)-1H-pyrazol-1-yl]azetidin-3-yl}acetonitrile] | < 10 | >10
C[C@H](NC(=O)c1cc(F)c(N2CC(CC#N)(n3cc(-c4ncnc5[nH]ccc45)cn3)C2)cc1F)C(F)(F)F [Compound 16, 4-{3-(cyanomethyl)-3-[4-(7H-pyrrolo[2,3-d]pyrimidin-4-yl)-1H-pyrazol-1-yl]azetidin-1-yl}-2,5-difluoro-N-[(1S)-2,2,2-trifluoro-1-methylethyl]benzamide] | < 10 | >10
C[C@H](O)CNCc1cc(OC2CCN([C@H]3C[C@](CC#N)(n4cc(-c5ncnc6[nH]ccc56)cn4)C3)CC2)nc(C(F)(F)F)c1 [Compound 25, {trans-3-(4-{[4-({[(2S)-2-hydroxypropyl]amino}methyl)-6-(trifluoromethyl)pyridin-2-yl]oxy}piperidin-1-yl)-1-[4-(7H-pyrrolo[2,3-d]pyrimidin-4-yl)-1H-pyrazol-1-yl]cyclobutyl} acetonitrile] | < 10 | >10
N#CC[C@]1(n2cc(-c3ncnc4[nH]ccc34)cn2)C[C@H](N2CCC(Oc3cc(CN4CCC[C@H]4CO)cc(C(F)(F)F)n3)CC2)C1 [Compound 12, {trans-3-(4-{[4-{[(2S)-2-(hydroxymethyl)pyrrolidin-1-yl]methyl}-6-(trifluoromethyl)pyridin-2-yl]oxy}piperidin-1-yl)-1-[4-(7H-pyrrolo[2,3-d]pyrimidin-4-yl)-1H-pyrazol-1-yl]cyclobutyl} acetonitrile] | < 10 | >10
N#CCC(CN1CCN(C(=O)c2ccc(C#N)cc2F)CC1)n1cc(-c2ncnc3[nH]ccc23)cn1 (stereo not shown) [Compound 5] | < 10 | >10
C[C@@H](O)CNCc1cc(OC2CCN([C@H]3C[C@](CC#N)(n4cc(-c5ncnc6[nH]ccc56)cn4)C3)CC2)nc(C(F)(F)F)c1 [Compound 24, {trans-3-(4-{[4-({[(2R)-2-hydroxypropyl]amino}methyl)-6-(trifluoromethyl)pyridin-2-yl]oxy}piperidin-1-yl)-1-[4-(7H-pyrrolo[2,3-d]pyrimidin-4-yl)-1H-pyrazol-1-yl]cyclobutyl} acetonitrile] | < 10 | >10
N#CCC(C1CCN(c2nc3cccnc3o2)C1)n1cc(-c2ncnc3[nH]ccc23)cn1 (stereo not shown) [Compound 4, 3-(1-[1,3]oxazolo[5,4-b]pyridin-2-ylpyrrolidin-3-yl)-3-[4-(7H-pyrrolo[2,3-d]pyrimidin-4-yl)-1H-pyrazol-1-yl]propanenitrile] | < 10 | >10
C[C@@H](CO)NCc1cc(OC2CCN([C@H]3C[C@](CC#N)(n4cc(-c5ncnc6[nH]ccc56)cn4)C3)CC2)nc(C(F)(F)F)c1 [Compound 23, {trans-3-(4-{[4-({[(1S)-2-hydroxy-1-methylethyl]amino}methyl)-6-(trifluoromethyl)pyridin-2-yl]oxy}piperidin-1-yl)-1-[4-(7H-pyrrolo[2,3-d]pyrimidin-4-yl)-1H-pyrazol-1-yl]cyclobutyl} acetonitrile] | < 10 | >10
N#CC[C@]1(n2cc(-c3ncnc4[nH]ccc34)cn2)C[C@H](N2CCN(C(=O)c3ccnc(C(F)(F)F)n3)CC2)C1 [Compound 10, [trans-1-[4-(7H-pyrrolo[2,3-d]pyrimidin-4-yl)-1H-pyrazol-1-yl]-3-(4-{[2-(trifluoromethyl)pyrimidin-4-yl]carbonyl}piperazin-1-yl)cyclobutyl] acetonitrile] | < 10 | >10
N#CCC1(n2cc(-c3ncnc4[nH]ccc34)cn2)CN(C2CCN(C(=O)c3ccnc(C(F)(F)F)n3)CC2)C1 [Compound 9, [3-[4-(7H-pyrrolo[2,3-d]pyrimidin-4-yl)-1H-pyrazol-1-yl]-1-(1-{[2-(trifluoromethyl)pyrimidin-4-yl]carbonyl}piperidin-4-yl)azetidin-3-yl]acetonitrile] | < 10 | >10
CCNCc1cc(O[C@H]2CC[C@@H](N3CC(CC#N)(n4cc(-c5ncnc6[nH]ccc56)cn4)C3)CC2)nc(C(F)(F)F)c1 [Compound 19, {1-(cis-4-{[4-[(ethylamino)methyl]-6-(trifluoromethyl)pyridin-2-yl]oxy}cyclohexyl)-3-[4-(7H-pyrrolo[2,3-d]pyrimidin-4-yl)-1H-pyrazol-1-yl]azetidin-3-yl}acetonitrile] | < 10 | >10
N#CCC1(n2cc(-c3ncnc4[nH]ccc34)cn2)CN([C@H]2CC[C@@H](Oc3cc(CN4CC[C@@H](O)C4)cc(C(F)(F)F)n3)CC2)C1 [Compound 21, {1-(cis-4-{[4-{[(3R)-3-hydroxypyrrolidin-1-yl]methyl}-6-(trifluoromethyl)pyridin-2-yl]oxy}cyclohexyl)-3-[4-(7H-pyrrolo[2,3-d]pyrimidin-4-yl)-1H-pyrazol-1-yl]azetidin-3-yl}acetonitrile] | < 10 | >10
